The record followed here is patent US20140094370A1, “FORMULATION COMPONENT” (SYNGENTA LIMITED, priority 2011, published 2014).

Test [1] concerns Chenopodium album (CHEAL), Abutilon theophrasti (ABUTH), Setaria viridis (SETVI) and Xanthium strumarium (XANST). Kind of test: Glasshouse herbicide efficacy test of fomesafen compositions with adjuvant against four weed species. The class given is in vivo. To be noted: mean over fomesafen 60 and 120 g/ha, three replicates, four weed species, 2, 7 and 14 days after application; adjuvant 0.5% v/v; 200 liters per hectare. On the procedure: (§1) The aromatic ester bis-2-ethylhexyl phthalate was tested as an adjuvant in compositions of fomesafen, in a glasshouse against four weed species. An agrochemical composition was prepared containing 0.5% v/v of the adjuvant in a track sprayer and was applied at a volume of 200 liters per hectare. Fomesafen was applied at a rate of either 60 or 120 grams per hectare. The adjuvant oils were emulsified using a small amount of the surfactant Pluronic® PE 10500, which was present in the composition at a concentration of 0.02% v/v. The weed species and their growth stage at spraying were Chenopodium album (CHEAL; growth stage 14), Abutilon theophrasti (ABUTH; growth stage 12), Setaria viridis (SETVI; growth stage 13), and Xanthium strumarium (XANST; growth stage 12).
Each spray test was replicated three times. The efficacy of the herbicide was assessed visually and expressed as a percentage of the leaf area killed. Samples were assessed at time periods of 2, 7 and 14 days following application. The results shown below in Table 11 are mean averages over the two rates of fomesafen, three replicates, four weed species and the three assessment timings, and are compared to the efficacy of fomesafen without adjuvant and fomesafen with the commercially available adjuvant Turbocharge® (applied at 0.5% v/v).

Test [2] deals with Polygonum convolvulus (POLCO), Brachiaria platyphylla (BRAPL), Digitaria sanguinalis (DIGSA) and Amaranthus tuberculatus (AMATU). Kind of test: Glasshouse herbicide efficacy test of mesotrione compositions with adjuvant against four weed species. It counts as in vivo. On the procedure:
as §1, with “mesotrione,” for “fomesafen,”, “Mesotrione” for “Fomesafen”, “at” for “at a rate of”, “Polygonum convolvulus (POLCO;” for “Chenopodium album (CHEAL; growth stage 14), Abutilon theophrasti (ABUTH; growth stage 12), Setaria viridis (SETVI;”, “Brachiaria platyphylla (BRAPL;” for “and Xanthium strumarium (XANST;”, “13)” for “12).”
Digitaria sanguinalis (DIGSA; growth stage 13) and Amaranthus tuberculatus (AMATU; growth stage 13).
Each spray test was replicated three times. The efficacy of the herbicide was assessed visually and expressed as a percentage of the leaf area killed. Samples were assessed at time periods of 7, 14 and 21 days following application. The results shown below in Table 10 are mean averages over the two rates of mesotrione, three replicates, four weed species and the three assessment timings, and are compared to the efficacy of mesotrione in the absence of adjuvant and mesotrione plus the commercial tank mix adjuvant Turbocharge® (applied at 0.5% v/v).

In the case of `CS(=O)(=O)NC(=O)c1cc(Oc2ccc(C(F)(F)F)cc2Cl)ccc1[N+](=O)[O-]` [Fomesafen], the “Mean percentage kill (percentage of the leaf area killed), mean across species” value in test [1] turned out to be 14.3 C %.
Consider `CS(=O)(=O)c1ccc(C(=O)C2C(=O)CCCC2=O)c([N+](=O)[O-])c1` [Mesotrione], for which, in test [2] (mean over mesotrione 60 and 120 g/ha, three replicates, four weed species, 7, 14 and 21 days after application, adjuvant 0.5% v/v, 200 liters per hectare), the “Mean percentage kill (percentage of the leaf area killed), mean across species” value worked out at 49.6 B %.
In the case of `CCCCC(CC)COC(=O)c1ccccc1C(=O)OCC(CC)CCCC` (stereo not drawn) [bis-2-ethylhexylphthalate, Bis(2-ethylhexyl) phthalate], the “Adjuvant effect on efficacy of the herbicide (in words)” value in test [2] (adjuvant 0.5% v/v with mesotrione, versus mesotrione without adjuvant) was “increases the efficacy of the herbicide mesotrione”.
